According to patent publication US20260137638A1, “STAT3 INHIBITORS FOR USE IN THE TREATMENT OF NON-VIRAL LIVER CANCER” (Tyardi Operating Company, Inc., priority 2022, published 2026):

System: HCC
Experiment: Safety and efficacy study of TTI-101 in advanced solid tumors: best response (RECIST v1.1) in HCC participants
Assay type: in vivo, human
Settings: for time partial response was sustained / best response: reduction in the sum of overall RECIST targets: non-viral HCC
Procedure: This study evaluates the safety and efficacy of TTI-101 in advanced solid tumors. TTI-101 was administered twice daily at doses of 1.6 (Cohort 1; n=4), 3.2 (Cohort 2; n=3), or 6.4 mg/kg/dose (Cohort 3; n=8) of a Labrasol/PEG400 formulation (60:40% v/v) or 6.4 mg/kg/dose (Cohort 3a: n=37) or 12.8 mg/kg/dose (Cohort 4; n=10) of oral capsule formulation (composition comprising TTI-101 at a concentration of 92 mg/g in a mixture of Kolliphor RH 40 (PEG-40 hydrogenated castor oil). PEG600. Polysorbate 20, Labrasol, and citric acid). TTI-101 was administered twice daily at 6.4 mg/kg/dose (Cohort 5; n=7) of oral tablet formulation (comprising 200 mg of TTI-101).
These patients had failed all prior lines of therapy (median number of prior therapies=3). Furthermore, a disease control rate (defined as the proportion of patients in whom the best overall response is determined as complete response, partial response or stable disease according to RECIST v1.1) of 60% has been observed in the 15 heavily pre-treated HCC patients (9/15), which is similar to that reported with sorafenib in first-line therapy.

[1] = number of participants, 7 non-viral HCC participants
[2] = number of participants, 8 viral HCC participants
[3] = number of participants, all 15 evaluable HCC participants

Question: Which results are given for COc1ccc(S(=O)(=O)Nc2cc(-c3c(O)ccc4ccccc34)c(O)c3ccccc23)cc1 [TTI-101, N-(1′,2-dihydroxy-1,2′-binaphthalen-4′-yl)-4-methoxybenzenesulfonamide]?
Answer: Disease Control Rate, HCC (non-viral) (7 non-viral HCC participants): 57%; Disease Control Rate, HCC (viral) (8 viral HCC participants): 63%; time partial response was sustained (Participant A, 6.4 mg/kg/day): 11 months; best response: reduction in the sum of overall RECIST targets (Participant A, 6.4 mg/kg/day, failed sorafenib, pembrolizumab, nivolumab, nivolumab+bevacizumab): 42%; time partial response was sustained (Participant B, 12.8 mg/kg/day): 14 months; best response: reduction in the sum of overall RECIST targets (Participant B, 12.8 mg/kg/day, failed lenvatinib and nivolumab): 66%; best response: reduction in the sum of overall RECIST targets (Participant C, 12.8 mg/kg/day, failed atezolizumab+bevacizumab): 45%; Disease Control Rate, HCC (complete response, partial response or stable disease by RECIST v1.1, 15 heavily pre-treated HCC patients (9/15)): 60%; Progressive Disease, HCC (non-viral) [1]: 3; Stable Disease, HCC (non-viral) [1]: 1; Partial Response, HCC (non-viral) (number of participants, 7 non-viral HCC participants, TTI-101 monotherapy): 3; Progressive Disease, HCC (viral) [2]: 3; Stable Disease, HCC (viral) [2]: 5; Partial Response, HCC (viral) (number of participants, 8 viral HCC participants, TTI-101 monotherapy): 0; Progressive Disease, HCC [3]: 6; Stable Disease, HCC [3]: 6; Partial Response, HCC (number of participants, all 15 evaluable HCC participants, TTI-101 monotherapy, after two 28-day cycles, radiologically confirmed): 3
